Measurements taken from patent US8575135B2 (Gilead Sciences, Inc., priority 2011, dated 2013).
Where two headings read alike, the source gives them in different places.

How the values were obtained:
[1] = test system: NS5A chimeric genotype 2a JFH-1 replicon with genotype 2b MD2b-1 strain NS5A gene (M31 present); experiment: microbe, parasite or virus in culture; assay type: cell-based, HCV; details: Hepatitis C virus
Procedure, shortened: (§1)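 Genotype 3a (S52) and 4a (ED43) NS5A chimeras use 1b Con1 Pi-RLuc replicons, transfected transiently; 2b MD2b-1 NS5A chimera (M31) uses 2a JFH-1 RLuc-Neo replicon, transient or stable.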

[2] = test system: NS5A chimeric genotype 1b Con1 replicon with genotype 3a S52 strain NS5A gene; experiment: microbe, parasite or virus in culture; assay type: cell-based, HCV; details: Hepatitis C virus
Procedure, shortened: as §1

[3] = test system: NS5A chimeric genotype 2a JFH-1 replicon with genotype 2a J6 strain NS5A gene (M31 present); experiment: microbe, parasite or virus in culture; assay type: cell-based, HCV; details: Hepatitis C virus
[4] = test system: 1a Pi-Rluc replicon with Q30R in genotype 1a NS5A; experiment: microbe, parasite or virus in culture; assay type: cell-based, HCV; details: Hepatitis C virus
Procedure, shortened: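 Renilla luciferase replicon assay: 1a Pi-RLuc replicon carrying NS5A Q30R, transfected transiently into cured-51 (Huh-7-derived) cells.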

[5] = test system: stable HCV 2a JFH-1 Rluc replicon cells (L31 present in NS5A); experiment: microbe, parasite or virus in culture; assay type: cell-based; details: Hepatitis C virus
[6] = IV and PO single dose pharmacokinetic studies in SD rats; assay type: in vivo; details: male, Sprague-Dawley, rat, plasma, IV infusion 1 mg/kg vs oral gavage 2 mg/kg, read-out: Rat % F
Description: IV and PO Single Dose Pharmacokinetic Studies in SD Rats: The pharmacokinetics of selected compounds was characterized in male Sprague-Dawley (SD) rats (250-300g). […] The intravenous (IV) dosing vehicle was 5% ethanol, 35% polyethylene glycol 400 (PEG 400) and 60% water pH 2.0. […] Serial blood samples (approximately 0.3 mL each) were collected from jugular vein or other suitable vein at specified time points. […] The blood samples were collected into Vacutainer™ tubes containing EDTA-K3 as the anti-coagulant and were centrifuged at approximately 4° C. to obtain plasma. The plasma samples were stored at −20° C. until analysis by LC/MS/MS. A bioanalytical method utilizing high performance liquid chromatography coupled to tandem mass spectrometry (LC/MS/MS) was developed for analysis of the selected compound in rat plasma. Detection was performed using selected reaction monitoring (SRM); […] Standard curve and quality control samples were prepared in male rat plasma and processed in the same way as the test samples to generate quantitative data. Pharmacokinetic parameters were generated using non-compartmental pharmacokinetic analysis (Phoenix WinNonlin, version 6.3). Values below the lower limit of quantification (LLOQ) were assigned a value of zero if predose and treated as missing thereafter. Area under the curve (AUC) was calculated using the linear trapezoidal rule. The oral bioavailability (% F) was determined by comparison of the area under the curve (AUC) of the compound and/or a metabolite generated in plasma following oral administration to that generated following intravenous administration.

[7] = test system: stable HCV 1a RLuc replicon cells (genotype 1a H77 replicon); experiment: microbe, parasite or virus in culture; assay type: cell-based; details: Hepatitis C virus
[8] = test system: NS5A chimeric genotype 1b Con1 replicon with genotype 4a ED43 strain NS5A gene; experiment: microbe, parasite or virus in culture; assay type: cell-based, HCV; details: Hepatitis C virus
[9] = test system: stable HCV 1b RLuc replicon cells (genotype 1b Con1 replicon); experiment: microbe, parasite or virus in culture; assay type: cell-based; details: Hepatitis C virus, read-out: 1b (nM)

Row | SMILES | EC50 ([1]; read-out: 2b) | EC50 ([1]; read-out: 2b (t) (nM)) | EC50 ([2]; read-out: 3a) | EC50 ([2]; read-out: 3a (nM)) | EC50 ([3]; read-out: 2a J6) | EC50 ([3]; read-out: 2a Jb (t) (nM)) | EC50 ([4]; read-out: 1a Q30R) | EC50 ([4]; read-out: 1a Q30R (nM)) | EC50 ([5]; read-out: 2a JFH) | EC50 ([5]; read-out: 2a JFH (nM)) | bioavailability [6] | EC50 ([7]; read-out: 1a) | EC50 ([7]; read-out: 1a (nM)) | EC50 ([1]; read-out: 2b (s) (nM)) | EC50 ([8]; read-out: 4a) | EC50 ([8]; read-out: 4a (s) (nM)) | EC50 ([8]; read-out: 4a (t) (nM)) | EC50 ([3]; read-out: 2a J6 (s) (nM)) | EC50 [9]
1 | CC[C@H](C)[C@H](NC(=O)OC)C(=O)N1[C@@H](C)CC[C@H]1c1ncc(-c2ccc3c(c2)COc2cc4c(ccc5nc([C@@H]6C[C@H](COC)CN6C(=O)[C@H](NC(=O)OC)c6ccccc6)[nH]c54)cc2-3)[nH]1 [Example OW] | < 1 nM | 0.008 nM | < 1 nM | 0.013 nM | < 1 nM | 0.009 nM | < 1 nM | 0.019 nM | < 1 nM | 0.006 nM | 13.3% | < 1 nM | 0.009 nM | – | – | – | – | – | –
2 | COC(=O)N[C@H](C(=O)N1[C@@H](C)CC[C@H]1c1ncc(-c2ccc3c(c2)COc2cc4c(ccc5nc([C@@H]6C[C@H](C)CN6C(=O)[C@H](NC(=O)OC)c6ccccc6)[nH]c54)cc2-3)[nH]1)C(C)C [Compound 617] | < 1 nM | 0.013 nM | < 1 nM | 0.019 nM | < 1 nM | 0.032 nM | < 1 nM | 0.024 nM | < 1 nM | 0.004 nM | 14.4% | < 1 nM | 0.009 nM | 0.011 nM | – | – | – | – | –
3 | COC(=O)N[C@H](C(=O)N1CCC[C@H]1c1nc2c(ccc3cc4c(cc32)OCc2cc(-c3cnc([C@@H]5CCCN5C(=O)[C@H](NC(=O)OC)c5ccccc5)[nH]3)ccc2-4)[nH]1)C(C)C [Example MD] | < 1 nM | 0.016 nM | < 1 nM | 0.006 nM | < 1 nM | 0.073 nM | < 1 nM | 0.192 nM | < 1 nM | 0.006 nM | – | < 1 nM | 0.035 nM | 0.038 nM | < 1 nM | 0.035 nM | 0.011 nM | 0.439 nM | 0.033 nM
4 | COC(=O)N[C@H](C(=O)N1CCC[C@H]1c1ncc(-c2ccc3c(c2)COc2cc4c(cc2-3)CCc2[nH]c([C@@H]3CCCN3C(=O)[C@@H](NC(=O)OC)C(C)C)nc2-4)[nH]1)C(C)C [Example ME] | < 1 nM | 0.198 nM | < 1 nM | 0.015 nM | 1 to 4.99 nM | 3.43 nM | 1 to 44 nM | 2.51 nM | < 1 nM | 0.012 nM | – | < 1 nM | 0.033 nM | 0.701 nM | < 1 nM | 0.029 nM | 0.016 nM | 16.1 nM | 0.049 nM
5 | COC[C@H]1C[C@@H](c2ncc(-c3ccc4c(c3)COc3cc5c(ccc6nc([C@@H]7C[C@H]8C[C@H]8N7C(=O)[C@H](NC(=O)OC)c7ccccc7)[nH]c65)cc3-4)[nH]2)N(C(=O)[C@@H](NC(=O)OC)C(C)C)C1 [Example MV] | < 1 nM | 0.041 nM | < 1 nM | 0.011 nM | < 1 nM | 0.047 nM | < 1 nM | 0.012 nM | < 1 nM | 0.004 nM | – | < 1 nM | 0.01 nM | – | < 1 nM | 0.011 nM | – | 0.034 nM | 0.014 nM
6 | COC(=O)N[C@H](C(=O)N1CCC[C@H]1c1ncc(-c2ccc3c(c2)COc2cc4c(cc2-3)CCc2[nH]c([C@@H]3CCCN3C(=O)[C@H](NC(=O)OC)c3ccccc3)nc2-4)[nH]1)C(C)C [Example MG] | < 1 nM | – | < 1 nM | 0.01 nM | < 1 nM | 0.337 nM | < 1 nM | 0.663 nM | < 1 nM | 0.012 nM | – | < 1 nM | 0.054 nM | 0.07 nM | < 1 nM | 0.08 nM | 0.024 nM | 2.29 nM | 0.055 nM
7 | COC(=O)N[C@H](C(=O)N1CCC[C@H]1c1nc2c([nH]1)CCc1cc3c(cc1-2)OCc1cc(-c2cnc([C@@H]4CCCN4C(=O)[C@H](NC(=O)OC)c4ccccc4)[nH]2)ccc1-3)C(C)C [Example MF, methyl[1-(2-{5-[2-(1-{[(methoxycarbonyl)amino]-3-methyl-1-oxobutan-2-yl}pyrrolidin-2-yl)-1,4,5,11-tetrahydroisochromeno[4′,3′:6,7]naphtho[1,2-d]imidazol-9-yl]-1H-imidazol-2-yl}pyrrolidin-1-yl)-phenyl-1-oxoacet-2-yl]carbamate] | < 1 nM | – | < 1 nM | 0.011 nM | < 1 nM | 0.476 nM | < 1 nM | 0.768 nM | < 1 nM | 0.012 nM | – | < 1 nM | 0.059 nM | 0.083 nM | < 1 nM | – | 0.025 nM | 2.14 nM | 0.058 nM
8 | COC[C@H]1C[C@@H](c2nc3ccc4cc5c(cc4c3[nH]2)OCc2cc(-c3cnc([C@@H]4CCCN4C(=O)[C@@H](NC(=O)OC)C(C)C)[nH]3)ccc2-5)N(C(=O)[C@H](NC(=O)OC)c2ccccc2)C1 [Example LR-1, methyl{2-[2-{9-[2-(1-{2-[(methoxycarbonyl)amino]-3-methylbutanoyl}pyrrolidin-2-yl)-1H-imidazol-5-yl]-1,11-dihydroisochromeno[4′,3′:6,7]naphtho[1,2-d]imidazol-2-yl}-4-(methoxymethyl)pyrrolidin-1-yl]-2-oxo-1-phenylethyl}carbamate] | < 1 nM | 0.01 nM | < 1 nM | 0.013 nM | < 1 nM | 0.018 nM | < 1 nM | 0.015 nM | < 1 nM | 0.005 nM | – | < 1 nM | 0.011 nM | 0.024 nM | < 1 nM | 0.012 nM | 0.01 nM | 0.048 nM | 0.016 nM
